Reference: BindingDB's records for patent US12291519 (Idorsia Pharmaceuticals, 2025)

How the values were obtained:
Galectin-1 = Galectin-1 (Homo sapiens, UniProt P09382); assay: Biological Assay
Procedure: (§1) The inhibitory activity of compounds is determined in competitive binding assays. […] Finally, 25 μL/well of ABTS substrate is added.

Galectin-3 = Galectin-3 (Homo sapiens, UniProt P17931); assay: Biological Assay
Procedure: as §1

Chain of Galectin-3 (P17931 whole entry): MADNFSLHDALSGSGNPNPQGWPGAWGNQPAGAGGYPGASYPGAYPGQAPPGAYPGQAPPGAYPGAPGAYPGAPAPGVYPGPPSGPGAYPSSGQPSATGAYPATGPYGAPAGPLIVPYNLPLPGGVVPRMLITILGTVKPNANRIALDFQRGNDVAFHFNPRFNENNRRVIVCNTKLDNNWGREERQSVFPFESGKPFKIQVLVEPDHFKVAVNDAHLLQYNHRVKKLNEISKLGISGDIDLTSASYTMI
Chain of Galectin-1 (P09382 whole entry): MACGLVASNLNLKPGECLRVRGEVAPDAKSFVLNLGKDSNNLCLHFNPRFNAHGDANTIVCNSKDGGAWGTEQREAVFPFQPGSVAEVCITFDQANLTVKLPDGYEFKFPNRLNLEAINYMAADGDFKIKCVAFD

| IC50 (Galectin-1) [nM] | IC50 (Galectin-3) [nM] | SMILES |
| --- | --- | --- |
| 150 | 8 | CO[C@@H]1[C@@H](n2cc(-c3cc(F)c(F)c(F)c3)nn2)[C@@H](O)[C@@H](CO)O[C@H]1C(=O)N(c1cc(Br)cc(C#N)c1)[C@H]1CCCC[C@@H]1O [US12291519, Example 112] |
| 37600 | 403 | Cn1cnc(CN(C(=O)[C@@H]2O[C@H](CO)[C@H](O)[C@H](n3cc(-c4cc(F)c(F)c(F)c4)nn3)[C@H]2O)[C@H]2CCCC[C@@H]2O)c1 [US12291519, Example 19] |
| 192 | 26 | CO[C@@H]1[C@@H](n2cc(-c3cc(F)cc(F)c3)nn2)[C@@H](O)[C@@H](CO)O[C@H]1C(=O)N(c1cc(Cl)cc(Cl)c1)[C@H]1CCCC[C@@H]1O [US12291519, Example 78] |
| 1380 | 14 | CO[C@@H]1[C@@H](n2cc(-c3cc(F)c(Cl)c(F)c3)nn2)[C@@H](O)[C@@H](CO)O[C@H]1C(=O)N(c1cc(Cl)cc(Cl)c1)[C@H]1CCCC[C@@H]1O [US12291519, Example 156] |
| 516 | 9 | COc1cc(-c2cn([C@H]3[C@@H](O)[C@@H](CO)O[C@@H](C(=O)N(c4cc(Cl)cc(Cl)c4)[C@H]4CCCC[C@@H]4O)[C@@H]3OC)nn2)cc(F)c1F [US12291519, Example 183] |
| 25900 | 294 | Cn1ccc(CN(C(=O)[C@@H]2O[C@H](CO)[C@H](O)[C@H](n3cc(-c4cc(F)c(F)c(F)c4)nn3)[C@H]2O)[C@H]2CCCC[C@@H]2O)n1 [US12291519, Example 24] |
| 58 | 31 | CO[C@@H]1[C@@H](n2cc(-c3cccc(F)c3)nn2)[C@@H](O)[C@@H](CO)O[C@H]1C(=O)N(c1cc(Cl)cc(Cl)c1)[C@H]1CCCC[C@@H]1O [US12291519, Example 72] |
| 267 | 35 | CO[C@@H]1[C@@H](n2cc(-c3cc(F)c(Cl)cc3F)nn2)[C@@H](O)[C@@H](CO)O[C@H]1C(=O)N(c1cc(Cl)cc(C#N)c1)[C@H]1CCCC[C@@H]1O [US12291519, Example 182] |
| 169 | 33 | CO[C@@H]1[C@@H](n2cc(-c3cc(F)c(F)c(F)c3)nn2)[C@@H](O)[C@@H](CO)O[C@H]1C(=O)N(c1ccc(Cl)c(Cl)c1)[C@H]1CCCC[C@@H]1O [US12291519, Example 98] |
| 1120 | 44 | COc1cc(C#N)cc(N(C(=O)[C@@H]2O[C@H](CO)[C@H](O)[C@H](n3cc(-c4ccc(Cl)c(Cl)c4)nn3)[C@H]2OC)[C@H]2CCCC[C@@H]2O)c1 [US12291519, Example 188] |
| 184 | 22 | CO[C@@H]1[C@@H](n2cc(-c3cc(F)cc(Cl)c3)nn2)[C@@H](O)[C@@H](CO)O[C@H]1C(=O)N(c1cc(Cl)cc(C#N)c1)[C@H]1CCCC[C@@H]1O [US12291519, Example 133] |
| 40600 | 564 | Cc1nc(CN(C(=O)[C@@H]2O[C@H](CO)[C@H](O)[C@H](n3cc(-c4cc(F)c(F)c(F)c4)nn3)[C@H]2O)[C@H]2CCCC[C@@H]2O)c[nH]1 [US12291519, Example 14] |
| 161 | 21 | O=C([C@@H]1O[C@H](CO)[C@H](O)C(n2cc(-c3cc(F)c(F)c(F)c3)nn2)[C@H]1OCCO)N(c1cc(Cl)cc(Cl)c1)[C@H]1CCCC[C@@H]1O (stereo partly drawn) [US12291519, Example 196] |
| 140 | 37 | CO[C@@H]1[C@@H](n2cc(-c3cccc(F)c3)nn2)[C@@H](O)[C@@H](CO)O[C@H]1C(=O)N(c1cc(Br)cc(C#N)c1)[C@H]1CCCC[C@@H]1O [US12291519, Example 77] |
| 333 | 14 | CO[C@@H]1[C@@H](n2cc(-c3cc(F)c(Cl)c(Cl)c3)nn2)[C@@H](O)[C@@H](CO)O[C@H]1C(=O)N(c1cc(Cl)cc(C#N)c1)[C@H]1CCCC[C@@H]1O [US12291519, Example 169] |
| 282 | 29 | COc1cc(-c2cn([C@H]3[C@@H](O)[C@@H](CO)O[C@@H](C(=O)N(c4cc(Cl)cc(C#N)c4)[C@H]4CCCC[C@@H]4O)[C@@H]3OC)nn2)ccc1Cl [US12291519, Example 184] |
| 709 | 19 | CO[C@@H]1[C@@H](n2cc(-c3cc(F)c(Cl)c(F)c3)nn2)[C@@H](O)[C@@H](CO)O[C@H]1C(=O)N(c1cc(Cl)cc(C#N)c1)[C@H]1CCCC[C@@H]1O [US12291519, Example 157] |
| 610 | 42 | O=C([C@@H]1O[C@H](CO)[C@H](O)[C@H](n2cc(-c3cc(F)c(Cl)c(F)c3)nn2)[C@H]1O)N(Cc1ccccc1C(F)(F)F)[C@H]1CCCC[C@@H]1O [US12291519, Example 67] |
| 1200 | 11 | CO[C@@H]1[C@@H](n2cc(-c3ccc(C(F)(F)F)c(F)c3)nn2)[C@@H](O)[C@@H](CO)O[C@H]1C(=O)N(c1cc(Cl)cc(Cl)c1)[C@H]1CCCC[C@@H]1O [US12291519, Example 180] |
